From article PMC8962522, “Direct interaction of TrkA/CD44v3 is essential for NGF-promoted aggressiveness of breast cancer cells” (Journal of Experimental & Clinical Cancer Research : CR, 2022)
“Also recorded” adds a separate entry of the source.

Experiments:
[1] = cited from earlier work
From the text: With more functions than those of a membrane receptor, CD44 is a multifunctional platform implicated in numerous physiological and disease mechanisms. In cancer, it has many functions (e.g., adhesion, migration/invasion, growth, differentiation, and resistance to therapies) depending on the splice variant expressed, corresponding ligands, posttranscriptional modifications, and association with growth factors and different membrane proteins.

[2] = test system: CD44v3 (CD44v3-His, whole cell extracts of COS-7 cells expressing CD44v3); assay: MST binding of NGF, TrkA or FGF to CD44v3; conditions: whole cell extracts of COS-7 expressing CD44v3, NGF alone, TrkA alone or FGF control
Description: MST was conducted using an NT.115 A Pico MST instrument (Nano Temper Technologies GmbH) equipped with red and blue filter sets. The TrkA-His tagged extracellular domain protein (Ala 34-Gly423) (9966-TK-050; R&D Systems, United Kingdom), diluted to 200 nM in PBS-T buffer (supplied by the vendor), was labeled using a Monolith His-Tag Labeling Kit with RED-Tris-NTA (Nano Temper). The RED-Tris-NTA dye was diluted in PBS-T to 100 nM. The mix was incubated at RT in the dark for 30 min. Next, an extract expressing CD44v3-labeled protein (CD44v3-His) and ligand and/or TrkA was mixed at a 1:1 ratio and incubated at RT in the dark for 15 min. For the binding check, peptides and TrkA-His were used. Capillaries were filled individually and loaded into the instrument. The data were acquired using high MST power and 100% LED. The data were analyzed using MO Control Software (Nano Temper).
Fig. 1 The C-terminal region of CD44 variant 3 binds to TrkA. A Schematic representation of the CD44 gene and protein structure. Alternative splicing leads to the expression of CD44 variants, thus the insertion of exon 8 leads to the expression of a CD44 protein containing variant 3 (CD44v3) and the insertion of exon 11 leads to the expression of a CD44 containing variant 6 (CD44v6) (B) TrkA/CD44v3 complex formation in COS-7 cells expressing TrkA and CD44v3 was detected by the proximity ligation assay (PLA), which was performed 0, 5 and 30 min after the initiation of NGF (100 ng/ml) treatment. The images represent signals detected by PLA. Quantification of the red spots was performed by ImageJ software (30 randomly chosen fields per condition of three different experiments). Statistical analyses were performed using one-way ANOVA followed by Bonferroni’s posttest. Error bars represent the standard error of the mean (S.E.M.); *** p < 0.001. ns, nonsignificant. C NGF and/or TrkA binding to CD44v3 was measured by microscale thermophoresis (MST). MST experiments were performed on whole cell extracts of COS-7 cells expressing CD44v3. […]

[3] = test system: MDA-MB-231 xenograft tumors; assay: MDA-MB-231 xenograft tumor growth in SCID mice; type: in vivo; conditions: injected near the tumor five times in a 3-day interval, from mean tumor volume 100 mm^3; versus PBS; 10 mice per group
Description: MDA-MB-231 cells (2 × 10^6) were subcutaneously injected into the flanks of six-week-old female SCID mice. One month after injection, the mice were randomized into 2 groups and injected near the tumor with CD44v3 mimetic peptide 4 (P4) or not (control) five times in a 3-day interval. Tumor volume was determined throughout the experiment by measuring the length (l) and width (w) and was calculated as π/6 × l × w × […]. Animals were sacrificed using isoflurane anesthesia when the tumors reached a similar size, and the organs were immediately removed and stored in liquid nitrogen.
To assess the role of TrkA/CD44v3 in vivo, SCID mice were injected with MDA-MB-231 cells to generate xenografts. Primary tumor development and metastasis (to the lung, brain and liver) were analyzed (Fig. 6). […] The development of primary tumors was measured throughout the experiments. […] We also assessed the metastatic burden. […] Micrometastases were detected at the end of the experiment by PCR of human microglobulin in xenograft mice treated with or without the CD44v3 mimetic peptide (Fig. 6E). […]
Fig. 6 CD44v3 mimetic peptide 4 blocks MDA-MB-231 tumor growth and metastasis. […] Body weight (B) and tumor volume (C) were measured following CD44v3 mimetic peptide administration (10 mice per group). […]

| Substance | binding to heparin (in words) [1] | binding to CD44v3 (in words) [2] | tumor growth (in words) [3] |
| --- | --- | --- | --- |
| NGF: recombinant human β-NGF (Alomone Labs, Israel) | does not bind heparin | No binding; also recorded: NGF did not bind to CD44v3; also recorded: NGF does not bind to CD44v3 |  |
| IDDDEDFISST [Peptide 4, mimetic peptide 4 (…) corresponding to the C-terminal region of CD44v3] |  |  | significantly inhibited the growth of MDA-MB-231 cells in xenograft tumors |
